Results reported in publication PMC10734772 (Turkish Journal of Chemistry, 2021).

Compound	melting point
Cc1ccnc(Nc2cc(NC(=O)c3ccc(CN4CCN(c5ncccn5)CC4)cc3)ccc2C)n1 [Compound 5, N-(4-Methyl-3-((4-methylpyrimidin-2-yl)amino)phenyl)-4-((4-(pyrimidin-2-yl)piperazin-1-yl)methyl)benzamide]	89 °C
Cc1ccc(NC(=O)c2ccc(CN3CCN(c4ncccn4)CC3)cc2)cc1Nc1cnccn1 [Compound 7, N-(4-Methyl-3-(pyrazin-2-ylamino)phenyl)-4-((4-(pyrimidin-2-yl)piperazin-1-yl)methyl)benzamide]	143 °C
Cc1ccnc(Nc2cc(NC(=O)c3ccc(CN4CCOCC4)cc3)ccc2C)n1 [Compound 8, N-(4-Methyl-3-((4-methylpyrimidin-2-yl)amino)phenyl)-4-(morhpolinomethyl)benzamide]	157 °C
Cc1ccnc(Nc2cc(NC(=O)c3ccc(CN4CCOCC4)cc3)ccc2C)c1 [Compound 9, N-(4-Methyl-3-((4-methylpyridin-2-yl)amino)phenyl)-4-(morhpolinomethyl)benzamide]	155 to 157 °C
COc1ccc(CN2CCN(Cc3ccc(C(=O)Nc4ccc(C)c(Nc5cc(C)ccn5)c4)cc3)CC2)c(OC)c1OC [Compound 10, N-(4-Methyl-3-((4-methylpyridin-2-yl)amino)phenyl)-4-((4-(2,3,4-trimethoxybenzyl)piperazin-1-yl)methyl)benzamide]	87 °C
